According to ChEMBL document CHEMBL5620374, “Synthesis and bioevaluation of novel stilbene-based derivatives as tubulin/HDAC dual-target inhibitors with potent antitumor activities in vitro and in vivo” (Eur J Med Chem, 2023):
The source made the active and inactive calls. The rule behind the calls is not given here.

Columns and labels:
K562 [1] = assay: Induction of cell cycle arrest at S phase in human K562 cells at 2 nM incubated for 48 hrs by PI staining based flow cytometry (reference value: 22.56 +/- 0.47 %); type: functional
MDA-MB-231 = assay: cells; conditions: Homo sapiens, MDA-MB-231, 72 h
Description: Antiproliferative activity against human MDA-MB-231 cells incubated for 72 hrs by MTT assay

K562 [2] = assay: Effect on cell cycle in human K562 cells assessed as decrease in Cdc2 level incubated for 24 hrs by Western blot analysis; type: functional, cell-based; conditions: dose 2-8 nM
[3] = Toxicity in ICR mouse allografted with mouse H22 cells assessed as toxic sign in heart at 10 to 20 mg/kg, iv qd for 17 days consecutively by H and E staining based analysis; type: organism-based; conditions: in vivo, dose 10-20 mg/kg, time 17 day
HUVEC [4] = assay: Antivascular activity against HUVEC cells assessed as decrease in cell migration at 8 nM incubated for 24 hrs by wound healing assay; type: functional, cell-based; conditions: Homo sapiens
H22 [5] = assay: Antitumor activity against mouse H22 cells allografted in ICR mouse assessed as decrease in tumor volume at 10 to 20 mg/kg, iv qd for 17 days consecutively; type: functional, organism-based; conditions: dose 10-20 mg/kg, time 17.0 day
K562 [6] = assay: Induction of cell cycle arrest at G2 phase in human K562 cells at 8 nM incubated for 48 hrs by PI staining based flow cytometry (Rvb =15.36 +/- 0.46 %); type: functional
HUVEC [7] = assay: Inhibition of tube formation in HUVEC cells at 8 nM incubated for 6 hrs by inverted microscopy; type: functional, cell-based; conditions: Homo sapiens
K562 [8] = assay: Induction of cell cycle arrest at G2 phase in human K562 cells at 4 nM incubated for 48 hrs by PI staining based flow cytometry (Rvb =15.36 +/- 0.46 %); type: functional
K562 [9] = assay: Induction of apoptosis in human K562 cells assessed as decrease in Bcl-xL level incubated for 24 hrs by Western blot analysis; type: functional, cell-based; conditions: dose 2-8 nM
[10] = Toxicity in ICR mouse allografted with mouse H22 cells assessed as toxic sign in spleen at 10 to 20 mg/kg, iv qd for 17 days consecutively by H and E staining based analysis; type: organism-based; conditions: in vivo, dose 10-20 mg/kg, time 17 day
B16-F10 = assay: Antiproliferative activity against mouse B16-F10 cells incubated for 72 hrs by MTT assay; type: functional, cell-based; conditions: B16-F10, 72 h
K562 [11] = assay: Induction of apoptosis in human K562 cells assessed as viable cells at 4 nM incubated for 48 hrs by Annexin V/PI staining based flow cytometry (reference value: 92.52 +/- 0.34 %); type: functional; conditions: read-out: Activity
K562 [12] = assay: Induction of apoptosis in human K562 cells assessed as necrotic cells at 2 nM incubated for 48 hrs by Annexin V/PI staining based flow cytometry (reference value: 2.56 +/- 0.22 %); type: functional
[13] = target: T1, Protein deacetylase HDAC6 (Homo sapiens) (UniProt Q9UBN7); assay: Inhibition of HDAC6 in human K562 cells assessed as increase in Acetyl-alpha-tubulin level at 0.01 to 1 uM incubated for 24 hrs by Western blot analysis; type: cell-based; conditions: dose 0.01-1 µM
T1 sequence (whole entry): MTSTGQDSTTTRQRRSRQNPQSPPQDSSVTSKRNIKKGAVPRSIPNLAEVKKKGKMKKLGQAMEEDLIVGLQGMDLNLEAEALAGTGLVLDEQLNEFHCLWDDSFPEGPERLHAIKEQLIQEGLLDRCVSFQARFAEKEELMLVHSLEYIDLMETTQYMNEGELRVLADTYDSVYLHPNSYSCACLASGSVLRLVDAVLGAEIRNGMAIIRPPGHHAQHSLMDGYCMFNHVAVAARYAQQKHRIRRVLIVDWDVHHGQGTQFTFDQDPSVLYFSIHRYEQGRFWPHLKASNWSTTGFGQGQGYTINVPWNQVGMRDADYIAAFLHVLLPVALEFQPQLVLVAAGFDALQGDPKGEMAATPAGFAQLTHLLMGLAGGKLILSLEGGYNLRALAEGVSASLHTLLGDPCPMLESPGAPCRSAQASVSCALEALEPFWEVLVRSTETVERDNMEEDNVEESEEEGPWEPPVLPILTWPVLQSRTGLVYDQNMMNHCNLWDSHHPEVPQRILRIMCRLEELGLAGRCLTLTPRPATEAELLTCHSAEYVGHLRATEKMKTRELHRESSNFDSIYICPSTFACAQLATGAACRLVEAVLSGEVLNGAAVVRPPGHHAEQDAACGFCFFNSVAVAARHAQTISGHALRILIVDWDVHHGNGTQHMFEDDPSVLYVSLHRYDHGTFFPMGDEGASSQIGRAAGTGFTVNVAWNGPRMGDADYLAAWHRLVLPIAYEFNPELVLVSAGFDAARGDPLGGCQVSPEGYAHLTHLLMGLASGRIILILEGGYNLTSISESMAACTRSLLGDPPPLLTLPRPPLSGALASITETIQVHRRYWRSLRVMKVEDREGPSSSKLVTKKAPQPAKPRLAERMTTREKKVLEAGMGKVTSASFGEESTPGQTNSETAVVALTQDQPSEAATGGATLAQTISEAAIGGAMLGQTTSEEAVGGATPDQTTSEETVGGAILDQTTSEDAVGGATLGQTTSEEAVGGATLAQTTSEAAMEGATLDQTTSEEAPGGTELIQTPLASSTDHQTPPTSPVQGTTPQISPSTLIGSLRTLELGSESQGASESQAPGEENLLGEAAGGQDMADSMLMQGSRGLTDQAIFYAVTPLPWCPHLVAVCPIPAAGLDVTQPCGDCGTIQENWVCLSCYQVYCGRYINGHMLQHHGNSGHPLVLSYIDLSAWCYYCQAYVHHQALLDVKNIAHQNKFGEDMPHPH

[14] = target: T2, Protein deacetylase HDAC6 (Homo sapiens, UniProt Q9UBN7); assay: Inhibition of HDAC6 derived from human HeLa cell extract using Ac-Leu-Gly-Lys (Ac)-AMC as substrate by fluorescence based assay; type: cell-free
T2 sequence (Q9UBN7 whole entry): T1 sequence (whole entry)

H22 [15] = assay: Antitumor activity against mouse H22 cells allografted in ICR mouse assessed as decrease in tumor microvessel density at 20 mg/kg, iv qd for 17 days consecutively by IHC analysis; type: functional, organism-based; conditions: time 17.0 day
Histone deacetylase 2 = Histone deacetylase 2 (Homo sapiens, UniProt Q92769); assay: Inhibition of HDAC2 derived from human HeLa cell extract using Ac-Leu-Gly-Lys (Ac)-AMC as substrate by fluorescence based assay
K562 [16] = assay: Induction of ROS generation in human K562 cells assessed as DCF-positive cells at 4 nM incubated for 48 hrs by DCF-DA probe based flow cytometry (reference value: 3.87 %); type: functional
K562 [17] = assay: Induction of apoptosis in human K562 cells assessed as decrease in Bcl-2 level incubated for 24 hrs by Western blot analysis; type: functional, cell-based; conditions: dose 2-8 nM
Tubulin = assay: Inhibition of tubulin (unknown origin) polymerization measured for 60 mins by absorbance based assay; type: protein-complex assay, Homo sapiens
K562 [18] = assay: Induction of cell cycle arrest at G1 phase in human K562 cells at 2 nM incubated for 48 hrs by PI staining based flow cytometry (reference value: 62.08 +/- 0.40 %); type: functional
H22 [19] = assay: Antitumor activity against mouse H22 cells allografted in ICR mouse assessed as decrease in tumor weight at 10 to 20 mg/kg, iv qd for 17 days consecutively; type: functional, organism-based; conditions: dose 10-20 mg/kg, time 17.0 day

Chain of Histone deacetylase 2 (Q92769 whole entry): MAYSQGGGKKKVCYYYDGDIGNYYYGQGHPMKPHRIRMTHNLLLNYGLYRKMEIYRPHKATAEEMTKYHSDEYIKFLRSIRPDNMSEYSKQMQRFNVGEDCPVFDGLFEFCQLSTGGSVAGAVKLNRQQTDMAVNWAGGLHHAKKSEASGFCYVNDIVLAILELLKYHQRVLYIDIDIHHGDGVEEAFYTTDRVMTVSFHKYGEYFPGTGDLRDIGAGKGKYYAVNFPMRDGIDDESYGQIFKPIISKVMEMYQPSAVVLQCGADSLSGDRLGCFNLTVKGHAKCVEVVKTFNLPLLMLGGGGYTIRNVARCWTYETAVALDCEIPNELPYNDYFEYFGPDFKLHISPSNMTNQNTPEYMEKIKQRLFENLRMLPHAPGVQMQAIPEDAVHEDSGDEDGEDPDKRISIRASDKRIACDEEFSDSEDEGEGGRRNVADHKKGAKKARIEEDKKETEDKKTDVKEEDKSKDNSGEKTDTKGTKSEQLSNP

C=C(c1ccc(OC)c(OC(F)C(=O)NO)c1)c1cc(C)nc2ccccc12 (stereo not drawn)
Activity (K562 [1]): 22.65% | IC50 (MDA-MB-231): 11 nM | Activity (K562 [2]): Dose-Dependent Effect | Activity [3]: Non-Toxic | Activity (HUVEC [4]): Active | Activity (H22 [5]): Active | Activity (K562 [6]): 27.87% | inhibition (HUVEC [7]): Active | Activity (K562 [8]): 23.38% | Activity (K562 [9]): Dose-Dependent Effect | Activity [10]: Non-Toxic | IC50 (B16-F10): 5 nM | viability at 0.004 µM (K562 [11]): 66.6% | Activity (K562 [12]): 0.36% | inhibition [13]: Active | IC50 [14]: 459 nM | Activity (H22 [15]): Active | IC50 (Histone deacetylase 2): 591 nM | Activity (K562 [16]): 29.72% | Activity (K562 [17]): Dose-Dependent Effect | IC50 (Tubulin): 3840 nM | Activity (K562 [18]): 56.87% | Activity (H22 [19]): Active
